Results as given in patent US5302582A, “Enkastins: new glycopeptides which act to inhibit enkephlinase, processes for their preparation, and their use as pharmaceutical products” (Hoechst Aktiengesellschaft, priority 1987, dated 1994).

Target: T1, enkephalinase preparation solubilized from rat kidneys (Rattus norvegicus, UniProt P07861)
T1 construct: enkephalinase preparation solubilized from rat kidneys; from tissue; host or cells: rat kidney
T1 sequence (P07861 1-750): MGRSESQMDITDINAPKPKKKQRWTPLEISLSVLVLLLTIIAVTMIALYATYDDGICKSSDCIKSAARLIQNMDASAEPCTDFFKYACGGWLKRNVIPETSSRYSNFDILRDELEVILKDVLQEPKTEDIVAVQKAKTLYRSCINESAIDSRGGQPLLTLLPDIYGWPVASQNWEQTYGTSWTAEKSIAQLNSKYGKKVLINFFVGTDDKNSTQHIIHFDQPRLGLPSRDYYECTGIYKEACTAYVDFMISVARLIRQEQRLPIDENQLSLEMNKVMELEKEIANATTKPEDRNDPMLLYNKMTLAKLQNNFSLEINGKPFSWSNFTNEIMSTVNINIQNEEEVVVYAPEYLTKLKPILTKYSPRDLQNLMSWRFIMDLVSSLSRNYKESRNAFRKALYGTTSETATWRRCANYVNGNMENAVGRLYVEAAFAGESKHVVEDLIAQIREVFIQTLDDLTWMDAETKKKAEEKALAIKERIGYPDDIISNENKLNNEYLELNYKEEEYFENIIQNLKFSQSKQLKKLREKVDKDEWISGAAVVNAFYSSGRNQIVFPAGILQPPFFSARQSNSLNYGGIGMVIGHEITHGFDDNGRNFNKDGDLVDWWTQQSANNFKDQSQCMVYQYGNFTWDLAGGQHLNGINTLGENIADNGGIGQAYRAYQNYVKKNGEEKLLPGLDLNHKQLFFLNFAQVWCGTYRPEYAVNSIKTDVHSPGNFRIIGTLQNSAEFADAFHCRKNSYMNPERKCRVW
Assay: Enkephalinase assay (enkephalinase inhibition)
Format: biochemical
Conditions: for IC50: inhibitor preincubated with the enzyme at room temperature for 60 minutes before addition of the substrate, read-out: IC50 (50% inhibition of enkephalinase); for enkephalinase-inhibitory activity of HPLC peaks: freeze-dried RP-18 HPLC fractions of crude enkastin complex from Streptomyces albus ATCC 21838
Method: The enzyme used was an enkephalinase preparation solubilized from rat kidneys by methods known per se [Mumford, R. A. et al. 1982, Biochem. Biophys. Res. Comm. 109, 1303-1309]. The 50% inhibition of enkephalinase by the compounds according to the invention, i.e. the IC50 value, was determined in a known manner using a concentration series, and the inhibitors, to which the invention relates, having been preincubated with the enzyme at room temperature for 60 minutes before the enzymatic reaction was started by addition of the substrate. Suitable checks for the non-inhibited reaction were carried out in the absence of an inhibitor.

| IC50 [nM] | enkephalinase-inhibitory activity of HPLC peaks | Compound |
| --- | --- | --- |
| 1.3 | – | CC(C)[C@@H](NCC(=O)[C@@H](O)[C@H](O)[C@H](O)CO)C(=O)N[C@@H](CC(=O)O)C(=O)O [compound 1, N-(1-deoxyfructos-1-yl)-D-Val-Asp] |
| 1.8 | – | CC[C@@H](C)[C@@H](NCC(=O)[C@@H](O)[C@H](O)[C@H](O)CO)C(=O)N[C@@H](CC(=O)O)C(=O)O [compound 2, N-(1-deoxyfructos-1-yl)-D-Ile-Asp] |
| 6.3 | enkephalinase-inhibitory activity | CC(C)[C@H](NCC(=O)[C@@H](O)[C@H](O)[C@H](O)CO)C(=O)N[C@@H](CC(=O)O)C(=O)O [compound 4, N-(1-deoxyfructos-1-yl)-Val-Asp] |
| 56 | – | O=C(O)CC[C@H](NC(=O)[C@H](Cc1ccccc1)NCC(=O)[C@@H](O)[C@H](O)[C@H](O)CO)C(=O)O [compound 5, N-(1-deoxyfructos-1-yl)-Phe-Glu] |
| 34 | enkephalinase-inhibitory activity | CC(C)[C@H](NCC(=O)[C@@H](O)[C@H](O)[C@H](O)CO)C(=O)N[C@@H](CCC(=O)O)C(=O)O [compound 6, N-(1-deoxyfructos-1-yl)-Val-Glu] |
| 34 | – | CC[C@H](C)[C@H](NCC(=O)[C@@H](O)[C@H](O)[C@H](O)CO)C(=O)N[C@@H](CC(=O)O)C(=O)O [compound 7, N-(1-deoxyfructos-1-yl)-Ile-Asp] |
| 56 | enkephalinase-inhibitory activity | CC[C@H](C)[C@H](NCC(=O)[C@@H](O)[C@H](O)[C@H](O)CO)C(=O)N[C@@H](CCC(=O)O)C(=O)O [compound 8, N-(1-deoxyfructos-1-yl)-Ile-Glu] |
| 70 | – | CC[C@H](C)[C@H](NCC(=O)[C@@H](O)[C@H](O)[C@H](O)CO)C(=O)N[C@@H](CC(=O)OC(C)(C)C)C(=O)O [compound 9, N-(1-deoxyfructos-1-yl)-Ile-Asp(OtBu)] |
| 210 | – | CC[C@H](C)[C@H](NCC(=O)[C@@H](O)[C@H](O)[C@H](O)CO)C(=O)N[C@@H](CO)C(=O)O [compound 11, N-(1-deoxyfructos-1-yl)-Ile-Ser] |
| 230 | – | CC(C)[C@@H](NCC(=O)[C@@H](O)[C@H](O)[C@H](O)CO)C(=O)O [compound 12, N-(1-deoxyfructos-1-yl)-D-Val] |
| 320 | – | CC(C)[C@H](NCC(=O)[C@@H](O)[C@@H](O)[C@H](O)CO)C(=O)N[C@@H](CC(=O)O)C(=O)O [compound 13, N-(1-deoxytagatos-1-yl)-Val-Asp] |
| 340 | – | CC[C@@H](C)[C@@H](NCC(=O)[C@@H](O)[C@H](O)[C@H](O)CO)C(=O)O [compound 14, N-(1-deoxyfructos-1-yl)-D-Ile] |
| 75 | – | N-(1-deoxyfructos-1-yl)-Hhp-Asp [compound 10] |
| 1.8 | enkephalinase-inhibitory activity | N-(1-deoxyfructos-1-yl)-Ile-Asp [compound 3] |
